Assay results published in ChEMBL document CHEMBL5034026, “Design, synthesis and evaluation of 2'-acetylene-7-deaza-adenosine phosphoamidate derivatives as anti-EV71 and anti-EV-D68 agents” (Eur J Med Chem, 2021).
pIC50: −log10 of the molar value.

Key:
[1] = Selectivity index, ratio of CC50 for human RD cells to IC50 for Enterovirus A71 infected in human RD cells; assay type: toxicity, cell-based; conditions: read-out: Selectivity Index
enterovirus D68 = experiment: Antiviral activity against Enterovirus D68 infected in human RD cells assessed as inhibition of viral replication measured after 4 days by Cell Titer-Glo luminescent cell viability assay; assay type: functional, organism-based; conditions: Enterovirus D, 96 h
Enterovirus A71 = experiment: Antiviral activity against Enterovirus A71 infected in human RD cells assessed as inhibition of viral replication measured after 4 days by Cell Titer-Glo luminescent cell viability assay; assay type: functional, organism-based; conditions: Enterovirus A, 96 h
RD = experiment: (§1) Cytotoxicity against human RD cells assessed as reduction in cell viability by Cell Titer-Glo luminescent cell viability assay; assay type: cell-based; conditions: rd
[2] = Selectivity index, ratio of CC50 for human RD cells to IC50 for Enterovirus D68 infected in human RD cells; assay type: toxicity, cell-based; conditions: read-out: Selectivity Index
[3] = as §1; assay type: cell-based; conditions: RD cells
[4] = Tmax in CD-1 mouse at 25 mg/kg, po by LC-MS/MS; assay type: ADME, organism-based; conditions: in vivo
[5] = Tmax in CD-1 mouse at 5 mg/kg, iv by LC-MS/MS; assay type: ADME, organism-based; conditions: in vivo
[6] = Cmax in CD-1 mouse at 25 mg/kg, po by LC-MS/MS; assay type: ADME, organism-based; design: route oral, dose 25 mg/kg; conditions: in vivo
[7] = AUC ( 0 to last) in CD-1 mouse at 5 mg/kg, iv by LC-MS/MS; assay type: ADME, organism-based; design: time 0 - last, route intravenous, dose 5 mg/kg; conditions: in vivo
[8] = Half life in CD-1 mouse at 25 mg/kg, po by LC-MS/MS; assay type: ADME, organism-based; conditions: in vivo
[9] = AUC ( 0 to last) in CD-1 mouse at 25 mg/kg, po by LC-MS/MS; assay type: ADME, organism-based; design: time 0 - last, route oral, dose 25 mg/kg; conditions: in vivo
[10] = AUC ( 0 to infinity ) in CD-1 mouse at 5 mg/kg, iv by LC-MS/MS; assay type: ADME, organism-based; design: route intravenous, time infinity, dose 5 mg/kg; conditions: in vivo
[11] = AUC ( 0 to infinity ) in CD-1 mouse at 25 mg/kg, po by LC-MS/MS; assay type: ADME, organism-based; design: time infinity, route oral, dose 25 mg/kg; conditions: in vivo
[12] = Cmax in CD-1 mouse at 5 mg/kg, iv by LC-MS/MS; assay type: ADME, organism-based; design: route intravenous, dose 5 mg/kg; conditions: in vivo
[13] = Half life in CD-1 mouse at 5 mg/kg, iv by LC-MS/MS; assay type: ADME, organism-based; conditions: in vivo
[14] = Half life in CD-1 mouse assessed as parent NITD008 level at 25 mg/kg, po by LC-MS/MS analysis; assay type: ADME, organism-based; conditions: in vivo
[15] = AUClast in CD-1 mouse assessed as parent NITD008 level at 25 mg/kg, po by LC-MS/MS analysis; assay type: ADME, organism-based; design: route oral, time 0 - last, dose 25 mg/kg; conditions: in vivo
[16] = Half life in CD-1 mouse assessed as parent NITD008 level at 5 mg/kg, iv by LC-MS/MS analysis; assay type: ADME, organism-based; conditions: in vivo
[17] = Tmax in CD-1 mouse assessed as parent NITD008 level at 25 mg/kg, po by LC-MS/MS analysis; assay type: ADME, organism-based; conditions: in vivo
[18] = AUCinf in CD-1 mouse assessed as parent NITD008 level at 25 mg/kg, po by LC-MS/MS analysis; assay type: ADME, organism-based; design: route oral, time infinity, dose 25 mg/kg; conditions: in vivo
[19] = AUClast in CD-1 mouse assessed as parent NITD008 level at 5 mg/kg, iv by LC-MS/MS analysis; assay type: ADME, organism-based; design: route intravenous, time 0 - last, dose 5 mg/kg; conditions: in vivo
[20] = Tmax in CD-1 mouse assessed as parent NITD008 level at 5 mg/kg, iv by LC-MS/MS analysis; assay type: ADME, organism-based; conditions: in vivo
[21] = Cmax in CD-1 mouse assessed as parent NITD008 level at 25 mg/kg, po by LC-MS/MS analysis; assay type: ADME, organism-based; design: route oral, dose 25 mg/kg; conditions: in vivo
[22] = AUCinf in CD-1 mouse assessed as parent NITD008 level at 5 mg/kg, iv by LC-MS/MS analysis; assay type: ADME, organism-based; design: route intravenous, time infinity, dose 5 mg/kg; conditions: in vivo
[23] = Cmax in CD-1 mouse assessed as parent NITD008 level at 5 mg/kg, iv by LC-MS/MS analysis; assay type: ADME, organism-based; design: route intravenous, dose 5 mg/kg; conditions: in vivo

SMILES | selectivity ratio [1] | pIC50 (enterovirus D68) | pIC50 (Enterovirus A71) | CC50 (RD) [nM] | selectivity ratio [2] | CC50 [3] [nM] | also measured
C#C[C@@]1(O)[C@H](O)[C@@H](COP(=O)(N[C@H](C)C(=O)OC(C)C)Oc2ccccc2)O[C@H]1n1ccc2c(N)ncnc21 (stereo not given in full) | > 15.8 | 4.87 | 5.20 | > 100000 | > 8.75 | – | –
C#C[C@@]1(O)[C@H](O)[C@@H](COP(=O)(N[C@H](Cc2ccccc2)C(=O)OC(C)C)Oc2ccccc2)O[C@H]1n1ccc2c(N)ncnc21 (stereo not given in full) | 1.66 | 5.22 | 5.09 | – | 2.22 | 13500 | –
C#C[C@@]1(O)[C@H](O)[C@@H](COP(=O)(N[C@@H](C(=O)OC)C(C)C)Oc2ccccc2)O[C@H]1n1ccc2c(N)ncnc21 (stereo not given in full) | > 7.86 | 4.67 | 4.90 | > 100000 | > 8.55 | – | –
C#C[C@@]1(O)[C@H](O)[C@@H](COP(=O)(N[C@@H](C)C(=O)OC(CC)CC)Oc2ccccc2)O[C@H]1n1ccc2c(N)ncnc21 (stereo not given in full) | > 139 | 5.93 | 5.84 | > 200000 | > 171 | – | –
C#C[C@@]1(O)[C@H](O)[C@@H](COP(=O)(N[C@@H](C)C(=O)OCC)Oc2ccccc2)O[C@H]1n1ccc2c(N)ncnc21 (stereo not given in full) | 40.2 | 5.91 | 6.08 | – | 27.1 | 33400 | –
C#C[C@@]1(O)[C@H](O)[C@@H](CO)O[C@H]1n1ccc2c(N)ncnc21 | > 36.2 | 6.64 | 6.26 | > 20000 | > 87.1 | – | Tmax [4]: 0.83 h; Tmax [5]: 1.98 min; Cmax [6]: 579 ng/mL; AUC(0-t) [7]: 1970 ng·h/mL; half-life [8]: 5.09 h; AUC(0-t) [9]: 2700 ng·h/mL; AUC(0-inf) [10]: 2080 ng·h/mL; AUC(0-inf) [11]: 2790 ng·h/mL; Cmax [12]: 6760 ng/mL; half-life [13]: 9.1 h
C#C[C@@]1(O)[C@H](O)[C@@H](COP(=O)(N[C@@H](C)C(=O)OC)Oc2ccccc2)O[C@H]1n1ccc2c(N)ncnc21 (stereo not given in full) | > 86.2 | 5.78 | 5.94 | > 100000 | > 59.9 | – | –
C#C[C@@]1(O)[C@H](O)[C@@H](COP(=O)(N[C@H](C(=O)OC)C(C)C)Oc2ccccc2)O[C@H]1n1ccc2c(N)ncnc21 (stereo not given in full) | > 72 | 5.58 | 5.86 | > 100000 | > 6.61 | – | –
C#C[C@@]1(O)[C@H](O)[C@@H](COP(=O)(N[C@@H](CCSC)C(=O)OC(C)C)Oc2ccccc2)O[C@H]1n1ccc2c(N)ncnc21 (stereo not given in full) | 11.3 | 5.51 | 6.10 | – | 2.92 | 8950 | –
C#C[C@@]1(O)[C@H](O)[C@@H](COP(=O)(N[C@@H](C)C(=O)OCCCCCC)Oc2ccccc2)O[C@H]1n1ccc2c(N)ncnc21 (stereo not given in full) | 262 | 6.44 | 6.89 | – | 94.5 | 34000 | t1/2 [14]: 5.39 h; AUClast [15]: 334 ng·h/mL; t1/2 [16]: 4.05 h; Tmax [17]: 0.14 h; AUC [18]: 368 ng·h/mL; AUClast [19]: 359 ng·h/mL; Tmax [20]: 1.98 min; Cmax [21]: 103 ng/mL; AUC [22]: 373 ng·h/mL; Cmax [23]: 1403 ng/mL
C#C[C@@]1(O)[C@H](O)[C@@H](COP(=O)(N[C@H](CCSC)C(=O)OC(C)C)Oc2ccccc2)O[C@H]1n1ccc2c(N)ncnc21 (stereo not given in full) | – | 4.31 | – | – | 0.4 | – | –
C#C[C@@]1(O)[C@H](O)[C@@H](COP(=O)(N[C@H](CC(C)C)C(=O)OC(C)C)Oc2ccccc2)O[C@H]1n1ccc2c(N)ncnc21 (stereo not given in full) | 125 | 4.73 | 6.26 | – | 3.7 | 68700 | –
C#C[C@@]1(O)[C@H](O)[C@@H](COP(=O)(N[C@@H](C)C(=O)OC2CCCC2)Oc2ccccc2)O[C@H]1n1ccc2c(N)ncnc21 (stereo not given in full) | – | 6.60 | 6.24 | – | – | – | –
C#C[C@@]1(O)[C@H](O)[C@@H](COP(=O)(N[C@@H](C)C(=O)OC2CCCCC2)Oc2ccccc2)O[C@H]1n1ccc2c(N)ncnc21 (stereo not given in full) | 117 | 6.77 | 6.72 | – | 131 | 22200 | t1/2 [14]: 5.68 h; AUClast [15]: 257 ng·h/mL; t1/2 [16]: 9.8 h; Tmax [17]: 0.5 h; AUC [18]: 281 ng·h/mL; AUClast [19]: 522 ng·h/mL; Tmax [20]: 1.98 min; Cmax [21]: 70 ng/mL; AUC [22]: 558 ng·h/mL; Cmax [23]: 1421 ng/mL
C#C[C@@]1(O)[C@H](O)[C@@H](COP(=O)(N[C@@H](C)C(=O)OCC(C)C)Oc2ccccc2)O[C@H]1n1ccc2c(N)ncnc21 (stereo not given in full) | – | 6.62 | – | – | 169 | – | –
C#C[C@@]1(O)[C@H](O)[C@@H](COP(=O)(N[C@@H](C)C(=O)OCCCCC)Oc2ccccc2)O[C@H]1n1ccc2c(N)ncnc21 (stereo not given in full) | – | 6.28 | 6.52 | – | 99.9 | 52900 | –
C#C[C@@]1(O)[C@H](O)[C@@H](COP(=O)(NCC(=O)OC(C)C)Oc2ccccc2)O[C@H]1n1ccc2c(N)ncnc21 (stereo not given in full) | > 15.1 | 5.10 | 5.18 | > 100000 | > 14.1 | – | –
C#C[C@@]1(O)[C@H](O)[C@@H](COP(=O)(N[C@H](Cc2c[nH]c3ccccc23)C(=O)OC(C)C)Oc2ccccc2)O[C@H]1n1ccc2c(N)ncnc21 (stereo not given in full) | 25.9 | 5.11 | 5.79 | – | 5.38 | 42000 | –
C#C[C@@]1(O)[C@H](O)[C@@H](COP(=O)(N[C@@H](C)C(=O)OCCCC)Oc2ccccc2)O[C@H]1n1ccc2c(N)ncnc21 (stereo not given in full) | > 345 | 6.44 | 6.24 | > 200000 | > 556 | – | –
C#C[C@@]1(O)[C@H](O)[C@@H](COP(=O)(N[C@@H](C)C(=O)OCCC)Oc2ccccc2)O[C@H]1n1ccc2c(N)ncnc21 (stereo not given in full) | < 0.47 | 6.35 | < 4.00 | – | 105 | 47400 | –
C#C[C@@]1(O)[C@H](O)[C@@H](COP(=O)(N[C@@H](Cc2ccccc2)C(=O)OC(C)C)Oc2ccccc2)O[C@H]1n1ccc2c(N)ncnc21 (stereo not given in full) | 385 | 4.90 | 6.74 | – | 5.52 | 69200 | –
C#C[C@@]1(O)[C@H](O)[C@@H](COP(=O)(N[C@@H](C)C(=O)OC(C)C)Oc2ccccc2)O[C@H]1n1ccc2c(N)ncnc21 (stereo not given in full) | 17.1 | 5.75 | 6.04 | – | 8.73 | 15500 | –
C#C[C@@]1(O)[C@H](O)[C@@H](COP(=O)(N[C@@H](CC(C)C)C(=O)OC(C)C)Oc2ccccc2)O[C@H]1n1ccc2c(N)ncnc21 (stereo not given in full) | 33.8 | 6.39 | 6.21 | – | 51.2 | 21000 | –
C#C[C@@]1(O)[C@H](O)[C@@H](COP(=O)(N[C@@H](Cc2c[nH]c3ccccc23)C(=O)OC(C)C)Oc2ccccc2)O[C@H]1n1ccc2c(N)ncnc21 (stereo not given in full) | 11.4 | 5.99 | 5.92 | – | 13.4 | 13800 | –
C#C[C@@]1(O)[C@H](O)[C@@H](COP(=O)(N[C@@H](C)C(=O)OCC(C)(C)C)Oc2ccccc2)O[C@H]1n1ccc2c(N)ncnc21 (stereo not given in full) | 77.5 | 6.28 | 6.41 | – | 57.1 | 30200 | t1/2 [14]: 4.97 h; AUClast [15]: 722 ng·h/mL; t1/2 [16]: 3.3 h; Tmax [17]: 0.83 h; AUC [18]: 744 ng·h/mL; AUClast [19]: 800 ng·h/mL; Tmax [20]: 1.98 min; Cmax [21]: 165 ng/mL; AUC [22]: 833 ng·h/mL; Cmax [23]: 1983 ng/mL
